Our source for the Activity values is ChEMBL document CHEMBL2074062, “Active intestinal secretion of new quinolone antimicrobials and the partial contribution of P-glycoprotein” (J Pharm Pharmacol, 2001).

Data set [1] deals with ATP-dependent translocase ABCB1 (Homo sapiens, UniProt P08183). Kind of data set: TP_TRANSPORTER: transepithelial transport (basal to apical) in MDR1-expressing LLC-PK1 cells. In kind it is functional, cell-based. The settings on record: pig.
Data set [2] deals with ATP-dependent translocase ABCB1 (Mus musculus, UniProt P21447). Kind of data set: TP_TRANSPORTER: decrease in intestinal clearance in mdr1a(-/-) mouse. In kind it is functional, tissue-based, Intestine.
ATP-dependent translocase ABCB1 (Mus musculus, UniProt P21447), sequence (P21447 whole entry): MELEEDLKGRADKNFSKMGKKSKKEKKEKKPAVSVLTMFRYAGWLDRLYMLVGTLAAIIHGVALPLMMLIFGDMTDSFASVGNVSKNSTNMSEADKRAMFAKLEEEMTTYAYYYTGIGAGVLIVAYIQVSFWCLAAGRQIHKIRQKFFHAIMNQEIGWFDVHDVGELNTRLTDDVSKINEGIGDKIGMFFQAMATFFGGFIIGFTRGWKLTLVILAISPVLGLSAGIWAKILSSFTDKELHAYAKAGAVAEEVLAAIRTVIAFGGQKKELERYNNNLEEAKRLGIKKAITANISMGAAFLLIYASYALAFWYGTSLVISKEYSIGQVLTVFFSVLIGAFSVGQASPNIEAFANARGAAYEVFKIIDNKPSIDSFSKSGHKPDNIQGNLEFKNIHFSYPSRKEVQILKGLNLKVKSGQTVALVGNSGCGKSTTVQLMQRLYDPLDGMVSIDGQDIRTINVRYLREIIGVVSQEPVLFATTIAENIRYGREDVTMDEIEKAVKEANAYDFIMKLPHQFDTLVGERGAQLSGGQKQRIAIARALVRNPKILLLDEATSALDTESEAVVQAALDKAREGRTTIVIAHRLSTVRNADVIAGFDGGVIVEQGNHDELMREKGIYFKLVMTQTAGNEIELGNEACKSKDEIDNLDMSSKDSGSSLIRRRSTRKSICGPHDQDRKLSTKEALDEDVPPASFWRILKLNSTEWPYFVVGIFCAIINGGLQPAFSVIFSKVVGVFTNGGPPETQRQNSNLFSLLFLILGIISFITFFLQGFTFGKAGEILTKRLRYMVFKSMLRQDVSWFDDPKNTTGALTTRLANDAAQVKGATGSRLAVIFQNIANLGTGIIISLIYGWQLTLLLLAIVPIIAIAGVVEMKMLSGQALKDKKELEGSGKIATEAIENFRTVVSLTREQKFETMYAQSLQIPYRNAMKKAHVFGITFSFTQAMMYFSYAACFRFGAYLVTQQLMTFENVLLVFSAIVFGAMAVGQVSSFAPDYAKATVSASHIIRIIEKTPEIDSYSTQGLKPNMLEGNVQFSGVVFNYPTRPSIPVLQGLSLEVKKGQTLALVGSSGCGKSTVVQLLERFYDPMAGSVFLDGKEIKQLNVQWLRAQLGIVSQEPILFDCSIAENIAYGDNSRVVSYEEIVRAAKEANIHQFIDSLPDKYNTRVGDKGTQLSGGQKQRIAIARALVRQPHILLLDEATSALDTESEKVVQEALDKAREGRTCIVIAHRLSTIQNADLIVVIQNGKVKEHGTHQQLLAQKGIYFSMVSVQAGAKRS

ATP-dependent translocase ABCB1 (Homo sapiens, UniProt P08183), sequence (P08183 whole entry): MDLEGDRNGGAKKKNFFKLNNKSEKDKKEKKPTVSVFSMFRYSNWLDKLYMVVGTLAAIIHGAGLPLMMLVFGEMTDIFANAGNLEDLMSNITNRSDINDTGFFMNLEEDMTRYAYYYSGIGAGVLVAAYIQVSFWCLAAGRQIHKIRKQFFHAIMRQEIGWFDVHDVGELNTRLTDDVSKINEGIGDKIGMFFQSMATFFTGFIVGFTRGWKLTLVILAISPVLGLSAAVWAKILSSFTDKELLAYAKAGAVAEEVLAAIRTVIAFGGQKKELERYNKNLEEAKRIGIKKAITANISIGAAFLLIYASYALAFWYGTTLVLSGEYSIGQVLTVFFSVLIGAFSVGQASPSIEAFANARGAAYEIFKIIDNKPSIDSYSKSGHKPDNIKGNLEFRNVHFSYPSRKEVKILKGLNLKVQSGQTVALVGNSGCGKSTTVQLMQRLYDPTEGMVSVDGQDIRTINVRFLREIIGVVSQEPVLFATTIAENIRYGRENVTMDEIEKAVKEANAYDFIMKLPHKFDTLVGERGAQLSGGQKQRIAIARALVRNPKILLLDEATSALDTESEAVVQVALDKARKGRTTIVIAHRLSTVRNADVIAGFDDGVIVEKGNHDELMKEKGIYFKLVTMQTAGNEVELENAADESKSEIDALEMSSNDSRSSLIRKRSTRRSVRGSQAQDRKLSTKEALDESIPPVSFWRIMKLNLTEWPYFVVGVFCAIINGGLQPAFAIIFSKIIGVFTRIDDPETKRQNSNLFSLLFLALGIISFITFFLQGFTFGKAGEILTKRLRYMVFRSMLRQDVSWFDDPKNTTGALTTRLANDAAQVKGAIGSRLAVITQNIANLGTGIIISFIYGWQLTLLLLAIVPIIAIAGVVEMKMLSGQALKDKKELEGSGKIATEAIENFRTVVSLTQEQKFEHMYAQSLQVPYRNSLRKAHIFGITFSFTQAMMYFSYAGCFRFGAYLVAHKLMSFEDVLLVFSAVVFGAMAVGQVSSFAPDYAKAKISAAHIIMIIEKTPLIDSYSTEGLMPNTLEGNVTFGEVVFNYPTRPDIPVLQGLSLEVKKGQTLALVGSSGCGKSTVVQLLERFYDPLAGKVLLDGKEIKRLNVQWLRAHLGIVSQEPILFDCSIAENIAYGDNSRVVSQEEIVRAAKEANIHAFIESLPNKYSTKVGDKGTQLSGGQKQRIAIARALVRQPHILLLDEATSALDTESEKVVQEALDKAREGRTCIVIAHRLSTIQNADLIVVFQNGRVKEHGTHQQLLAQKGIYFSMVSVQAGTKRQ

As for `Cc1c(F)c(N2CCNC(C)C2)cc2c1c(=O)c(C(=O)O)cn2C1CC1` (stereo not drawn) [GREPAFLOXACIN], the Activity entry in data set [1] and in data set [2] was “substrate [+]” in each case. Turning to `C[C@@H]1CN(c2c(F)c(N)c3c(=O)c(C(=O)O)cn(C4CC4)c3c2F)C[C@H](C)N1` [SPARFLOXACIN], in data set [1], the Activity result was “substrate [+]”.
